Experimental data reported in the supplement of paper PMC11061612.

Key:
[1] = tested on: RERF-LC-Sq1 (Squamous Cell Lung Carcinoma); test: combination Emax (second highest fraction inhibited in the dose matrix, 72 h); higher = more inhibition; extreme values may be limits of the assay
Outline: (§1)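 Cell lines grown in DMEM/F12 or RPMI with 10% FBS were plated in 1536-well plates and held 24 hours at 37°C, 5% CO2 before 72 hours of exposure to two-drug dose matrices, with DMSO typically at 0.2%. CellTiter-Glo 2.0 luminescence gave viability, which was converted to inhibition. Vehicle wells were set to 0 and blank wells to 1. Combination Emax is the second-highest inhibition in the matrix, and Bliss excess is the observed combination effect minus the expected EA + EB − EA·EB, where EA and EB are the single-agent effects.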

[2] = tested on: CAL-120 (Breast Carcinoma); test: as above
Outline: as §1

[3] = tested on: LB996-RCC (Kidney Carcinoma); test: as above
Outline: as §1

[4] = tested on: MKN45 (Gastric Carcinoma); test: Bliss excess, mean over the matrix (fraction); higher = more synergy
Outline: as §1

[5] = tested on: RERF-LC-Sq1 (Squamous Cell Lung Carcinoma); test: as above
Outline: as §1

WM793B (Melanoma) = test: as above
Outline: as §1

IST-MES1 (Mesothelioma) = test: as above
Outline: as §1

SF539 (Glioblastoma) = test: as above
Outline: as §1

[6] = tested on: HEC-1 (Endometrial Carcinoma); test: as above
Outline: as §1

[7] = tested on: RCM-1 (Colorectal Carcinoma); test: as above
Outline: as §1

[8] = tested on: GP5d (Colorectal Carcinoma); test: as above
Outline: as §1

[9] = tested on: CAL-120 (Breast Carcinoma); test: as above
Outline: as §1

[10] = tested on: HCT-15 (Colorectal Carcinoma); test: as above
Outline: as §1

[11] = tested on: KE-37 (T-Lymphoblastic Leukemia); test: as above
Outline: as §1

A2058 (Melanoma) = test: as above
Outline: as §1

[12] = tested on: CAL-62 (Thyroid Gland Carcinoma); test: as above
Outline: as §1

[13] = tested on: NCI-H23 (Lung Adenocarcinoma); test: as above
Outline: as §1

[14] = tested on: RKN (Other Solid Carcinomas); test: as above
Outline: as §1

[15] = tested on: HSC-39 (Gastric Carcinoma); test: as above
Outline: as §1

[16] = tested on: LXF-289 (Lung Adenocarcinoma); test: as above
Outline: as §1
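Wherever Bliss excess, mean over the matrix is given: after 72 h of two-drug dosing.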

Row | Compound | combination Emax [1] | combination Emax [2] | combination Emax [3] | Bliss excess [4] | Bliss excess [5] | Bliss excess (WM793B (Melanoma)) | Bliss excess (IST-MES1 (Mesothelioma)) | Bliss excess (SF539 (Glioblastoma)) | Bliss excess [6] | Bliss excess [7] | Bliss excess [8] | Bliss excess [9] | Bliss excess [10] | Bliss excess [11] | Bliss excess (A2058 (Melanoma)) | Bliss excess [12] | Bliss excess [13] | Bliss excess [14] | Bliss excess [15] | Bliss excess [16]
1 | CC(=O)c1c(C)c2cnc(Nc3ccc(N4CCNCC4)cn3)nc2n(C2CCCC2)c1=O [Palbociclib] + Cn1cnc2c(F)c(Nc3ccc(Br)cc3Cl)c(C(=O)NOCCO)cc21 [Selumetinib] (first compound max 10 µM, 7x7, partner max 10 µM) | 0.512 | 0.186 | 0.285 | -0.0092 | -0.0488 | -0.0173 | -0.0799 | -0.0345 | -0.0391 | -0.0286 | -0.0062 | -0.0361 | 0.0538 | 0.0207 | 0.0131 | 0.0248 | -0.0057 | -0.0279 | -0.0069 | -0.0054
2 | COc1cccc(OCCCN)c1-c1cc(Nc2cnc(C#N)cn2)n[nH]1 [Prexasertib] + C=CCn1c(=O)c2cnc(Nc3ccc(N4CCN(C)CC4)cc3)nc2n1-c1cccc(C(C)(C)O)n1 [AZD1775] (first compound max 1 µM, partner max 1 µM) | 0.906 | 0.685 | 0.877 | -0.0561 | 0.0621 | 0.0129 | 0.127 | 0.0187 | 0.109 | -0.0248 | 0.035 | 0.0551 | 0.0406 | 0.0311 | 0.0994 | 0.137 | 0.0334 | 0.117 | 0.05 | 0.0418
3 | COc1cccc(OCCCN)c1-c1cc(Nc2cnc(C#N)cn2)n[nH]1 [Prexasertib] + CCc1c2c(nc3ccc(O)cc13)-c1cc3c(c(=O)n1C2)COC(=O)[C@]3(O)CC [SN-38] (first compound max 1 µM, 7x7, partner max 0.3 µM) | 0.824 | 0.85 | 0.947 | -0.0493 | -0.0081 | -0.0489 | -0.026 | -0.0091 | 0.0893 | -0.0729 | -0.0173 | 0.0574 | 0.051 | -0.0182 | 0.123 | -0.0543 | -0.0001 | 0.134 | 0.0026 | -0.0201
4 | COc1cccc(OCCCN)c1-c1cc(Nc2cnc(C#N)cn2)n[nH]1 [Prexasertib] + CN(C)CCCOc1ccc(-c2ccc3ncc4c(c3c2)n(C2CCOCC2)c(=O)n4C)cn1 [AZD0156] (first compound max 1 µM, 7x7, partner max 1 µM) | 0.864 | 0.456 | 0.712 | -0.0645 | -0.0209 | -0.0265 | -0.0211 | -0.0339 | -0.0146 | -0.0358 | 0.0215 | 0.0088 | 0.0607 | -0.0022 | 0.007 | -0.0364 | -0.0245 | -0.0478 | -0.0196 | 0.0113
5 | COc1cccc(OCCCN)c1-c1cc(Nc2cnc(C#N)cn2)n[nH]1 [Prexasertib] + C[C@@H]1COCCN1C2=NC(=NC(=C2)C3(CC3)[S@](=N)(=O)C)C4=C5C=CNC5=NC=C4 [AZD6738] (first compound max 1 µM, 7x7, partner max 10 µM) | 0.899 | 0.446 | 0.786 | -0.0931 | -0.0492 | -0.05 | 0.0093 | -0.0046 | -0.0434 | -0.0307 | -0.0157 | 0.0093 | 0.0391 | 0.0043 | 0.0232 | -0.005 | -0.0504 | -0.027 | -0.0067 | -0.0228
6 | COc1cccc(OCCCN)c1-c1cc(Nc2cnc(C#N)cn2)n[nH]1 [Prexasertib] + Cc1cc2ncnn2cc1Nc1ncc2c(n1)n(C1CCOCC1)c(=O)n2C [AZD7648] (first compound max 1 µM, 7x7, partner max 10 µM) | 0.855 | 0.512 | 0.776 | -0.0229 | -0.0281 | -0.0169 | -0.0032 | 0.014 | 0.0762 | -0.0166 | 0.033 | 0.0045 | -0.0449 | -0.006 | 0.0025 | -0.0128 | -0.026 | -0.0293 | 0.008 | -0.0006
7 | COc1cccc(OCCCN)c1-c1cc(Nc2cnc(C#N)cn2)n[nH]1 [Prexasertib] + O=C(c1cc(Cc2n[nH]c(=O)c3ccccc23)ccc1F)N1CCN(C(=O)C2CC2)CC1 [Olaparib] (first compound max 1 µM, 7x7, partner max 10 µM) | 0.833 | 0.526 | 0.759 | -0.044 | -0.0373 | -0.0688 | -0.0105 | 0.0007 | -0.0535 | -0.196 | -0.0179 | -0.0552 | -0.0077 | 0.0073 | 0.0158 | -0.0031 | -0.0675 | -0.0958 | 0.0127 | -0.0569
8 | COc1cc2c(cc1OCCCCCOc1cc3c(cc1OC)C(=O)N1C=C(C)C[C@H]1C=N3)N=C[C@@H]1CC(C)=CN1C2=O [SG3199] + O=C(c1cc(Cc2n[nH]c(=O)c3ccccc23)ccc1F)N1CCN(C(=O)C2CC2)CC1 [Olaparib] (first compound max 0.001 µM, 7x7, partner max 10 µM) | 0.129 | 0.142 | 0.282 | -0.0633 | 0.0049 | -0.0198 | -0.0402 | -0.0049 | 0.0483 | -0.0371 | -0.0206 | -0.0329 | 0.0701 | 0.0055 | -0.0172 | -0.0342 | 0.0008 | -0.0377 | -0.0067 | -0.0358
9 | CCc1c2c(nc3ccc(O)cc13)-c1cc3c(c(=O)n1C2)COC(=O)[C@]3(O)CC [SN-38] + CN(C)CCCOc1ccc(-c2ccc3ncc4c(c3c2)n(C2CCOCC2)c(=O)n4C)cn1 [AZD0156] (first compound max 0.3 µM, 7x7, partner max 1 µM) | 0.743 | 0.381 | 0.898 | -0.049 | 0.114 | -0.0295 | 0.0085 | 0.0216 | -0.0374 | -0.0005 | 0.0624 | -0.0792 | 0.0187 | 0.0603 | 0.0477 | -0.0143 | -0.0247 | 0.0057 | 0.0344 | 0.0639
10 | C[C@@H](c1ccc2nccn2c1)n1nnc2ncc(-c3cnn(C)c3)nc21 [Savolitinib] + CC1(C)CCC(CN2CCN(c3ccc(C(=O)NS(=O)(=O)c4ccc(NCC5CCOCC5)c([N+](=O)[O-])c4)c(Oc4cnc5[nH]ccc5c4)c3)CC2)=C(c2ccc(Cl)cc2)C1 [Venetoclax] (first compound max 1 µM, 7x7, partner max 1 µM) | 0.167 | 0.0877 | 0.0725 | -0.0664 | -0.0562 | -0.0603 | -0.0318 | -0.0697 | -0.0423 | -0.0416 | -0.0572 | -0.0804 | -0.012 | -0.0357 | -0.0611 | -0.0246 | -0.0486 | -0.0529 | 0.0096 | -0.0339
11 | C[C@@H](c1ccc2nccn2c1)n1nnc2ncc(-c3cnn(C)c3)nc21 [Savolitinib] + Cc1c2c(nn1C)CSCc1cc(n(C)n1)CSc1cc(c3ccccc3c1)OCCCc1c(C(=O)O)n(C)c3c-2c(Cl)ccc13 [AZD5991] (first compound max 1 µM, 7x7, partner max 1 µM) | 0.173 | 0.112 | 0.125 | -0.0133 | -0.009 | -0.0658 | -0.0435 | -0.0337 | -0.0541 | -0.0451 | -0.0912 | -0.0387 | 0.0013 | -0.0335 | -0.0043 | -0.022 | -0.0163 | -0.0706 | -0.0133 | 0.0178
12 | Cn1cnc2c(F)c(Nc3ccc(Br)cc3Cl)c(C(=O)NOCCO)cc21 [Selumetinib] + C=CCn1c(=O)c2cnc(Nc3ccc(N4CCN(C)CC4)cc3)nc2n1-c1cccc(C(C)(C)O)n1 [AZD1775] (first compound max 10 µM, partner max 1 µM) | 0.666 | 0.326 | 0.717 | -0.0765 | -0.0617 | 0.004 | -0.0955 | -0.025 | -0.0448 | -0.0359 | -0.0796 | -0.0502 | -0.0198 | 0.0083 | -0.029 | 0.0273 | 0.0223 | -0.0397 | -0.0725 | -0.0547
13 | Cn1cnc2c(F)c(Nc3ccc(Br)cc3Cl)c(C(=O)NOCCO)cc21 [Selumetinib] + CC(C)n1c(=O)n(C)c2cnc3cc(F)c(-c4ccc(OCCCN5CCCCC5)nc4)cc3c21 [AZD1390] (first compound max 10 µM, 7x7, partner max 0.3 µM) | 0.402 | 0.112 | 0.181 | -0.0388 | 0.0117 | -0.0211 | -0.0382 | -0.0232 | -0.0412 | -0.0495 | 0.0142 | -0.0388 | -0.0001 | 0.0255 | -0.0155 | -0.0319 | -0.0103 | 0.0378 | 0.0253 | -0.0312
14 | Cn1cnc2c(F)c(Nc3ccc(Br)cc3Cl)c(C(=O)NOCCO)cc21 [Selumetinib] + CCN(CCO)CCCOc1ccc2c(Nc3cc(CC(=O)Nc4cccc(F)c4)[nH]n3)ncnc2c1 [AZD2811] (first compound max 10 µM, 7x7, partner max 1 µM) | 0.535 | 0.188 | 0.343 | 0.0107 | -0.0041 | -0.0465 | -0.0718 | -0.0193 | -0.0402 | -0.0259 | -0.0153 | -0.0065 | 0.0193 | -0.0047 | 0.0945 | 0.0427 | 0.0194 | -0.0232 | -0.0355 | 0.0253
15 | Cn1cnc2c(F)c(Nc3ccc(Br)cc3Cl)c(C(=O)NOCCO)cc21 [Selumetinib] + C[C@@H]1COCCN1C2=NC(=NC(=C2)C3(CC3)[S@](=N)(=O)C)C4=C5C=CNC5=NC=C4 [AZD6738] (first compound max 10 µM, 7x7, partner max 10 µM) | 0.786 | 0.436 | 0.556 | -0.0731 | 0.0516 | -0.0447 | -0.0374 | 0.0586 | -0.0317 | -0.132 | 0.0209 | 0.0117 | -0.0057 | 0.0087 | 0.059 | 0.0142 | 0.0385 | 0.0584 | -0.0391 | -0.0165
